“Also recorded” adds a separate entry of the source.

Data set [1] concerns BKS.Cg-+Leprdb/+Leprdb/Jc1 mice (db/db mice). As to the kind of experiment: Blood glucose lowering action of oligosaccharide chain added liraglutide using db/db mice. Format: in vivo. To be noted: for blood glucose lowering action in db/db mice: 9 nmol/10 mL PBS, 10 mL/kg i.p., blood glucose at 30 to 720 minutes. On the procedure: Blood glucose suppressing activity using db/db mice can be determined by measuring blood glucose after administration of a test compound to diabetic mice. Blood glucose after administration of the test compound is measured over time, and if for example, blood glucose 120 minutes after administration is lower than at the time of administration, blood glucose lowering action can be confirmed. For example, sustainability of blood glucose lowering action can also be determined by measuring blood glucose 300 minutes after administration. […] Orbital blood was collected before administration of the compound, as well as 30 minutes, 60 minutes, 120 minutes, 240 minutes, 480 minutes, and 720 minutes later, and blood glucose was measured using Accu-Chek Aviva (Roche Diagnostics). Similarly, non-oligosaccharide chain added liraglutide was also administered to db/db mice, blood glucose was measured over time, and compared to the action of position 30 Cys-disialooligosaccharide chain added liraglutide.

Data set [2] concerns C57BL/6JJcl mice. The data set is described as follows: Oral glucose tolerance test (OGTT) of oligosaccharide chain added liraglutide. Format: in vivo. To be noted: 9 nmol/10 ml PBS, 10 ml/kg i.p., 30 minutes before oral glucose 1 mg/g, fasted C57BL/6JJcl mice. On the procedure:
(§1) Blood glucose suppressing activity by OGTT can be determined by measuring blood glucose elevation suppression when mice are force-fed sugar. For example, first, a test compound is administered to mice fasted overnight, and glucose solution is orally administered 30 minutes later. Blood glucose in mice will rise from the administration of glucose, reach maximum at about 30 minutes after administration, and then slowly decrease. The blood glucose suppressing action of the oligosaccharide, chain added antigenic GLP-1 analogue can be evaluated by measuring blood glucose 30 minutes after administration of glucose, and comparing it to blood glucose when non-oligosaccharide chain added antigenic GLP-1 analogue is administered. […] Orbital blood was collected before administration of glucose, as well as 30 minutes, 60 minutes, and 120 minutes after administration of glucose, and blood glucose was measured using Accu-Chek Aviva (Roche Diagnostics).

Data set [3] relates to C57BL/6JJcl mice. The data set is described as follows: Oral glucose tolerance test (OGTT) of oligosaccharide chain added exendin-4. Format: in vivo. To be noted: 0.9 nmol/10 ml PBS, 10 ml/kg i.p., 30 minutes before oral glucose 1 mg/g, fasted C57BL/6JJcl mice, GLP-1 at 9 nmol/10 ml. How it is done:
as §1, with “Diagnostics). Similarly, non-oligosaccharide chain added liraglutide was also administered to db/db mice, blood glucose was measured over time, and compared to the action of position 30 Cys-disialooligosaccharide chain added liraglutide.” for “Diagnostics).”

Data set [4] has as its system BKS.Cg-+Leprdb/+Leprdb/Jc1 mice. As to the kind of experiment: Blood glucose lowering action of oligosaccharide chain added exendin-4 using db/db mice. Format: in vivo. To be noted: for blood glucose lowering action in db/db mice: 9 mmol/10 mL PBS, 10 mL/kg i.p., blood glucose at 30, 60, 120, 240 minutes. How it is done: Blood glucose suppressing activity using db/db mice can be determined by measuring blood glucose after administration of a test compound to diabetic mice. Blood glucose after administration of the test compound is measured over time, and if for example, blood glucose 120 minutes after administration is lower than at the time of administration, blood glucose lowering action can be confirmed. For example, sustainability of blood glucose lowering action can also be determined by measuring blood glucose 300 minutes after administration.
A PBS solution of position 30 Cys-disialooligosaccharide chain added exendin-4 synthesized in Example 1 ([…]/10 mL) was intraperitoneally administered to BKS.Cg-+Leprdb/+Leprdb/Jc1 mice (10 weeks old, male) at an administration dosage of 10 mL/kg. Orbital blood was collected before administration of the compound, as well as 30 minutes, 60 minutes, 120 minutes, and 240 minutes later, and blood glucose was measured using Accu-Chek Aviva (Roche Diagnostics).
Blood glucose lowering action was compared with non-oligosaccharide chain added exendin-4 synthesized in Comparative Example 1.

The target of a further data set is albumin (Homo sapiens, UniProt P02768). The settings on record: background art; cited from earlier work.
In another data set the test system is balb/c mice. The settings on record: mouse, in vivo. An excerpt: The effect of glycosylation on the antigenicity of exendin was verified by sensitizing mice with non-oligosaccharide chain added exendin-4 or position 30 Cys-disialooligosaccharide chain added exendin-4, and comparing blood anti-exendin-4 antibody concentrations.
As priming immunization, position 30 Cys-disialooligosaccharide chain added exendin-4 synthesized in Example 1 and non-oligosaccharide chain added exendin-4 (American Peptide Company) were mixed well with Complete Freund's adjuvant (Difco Laboratories) to make emulsions, and intraperitoneally administered to balb/c mice (female, 7 weeks old). […]
Plasma was collected from mice seven days after the boost immunization. The anti-exendin-4 antibody concentration in plasma was measured by Enzyme-Linked immunosorbent assay (ELISA) using commercially available anti-exendin-4 antibody (Antibodyshop) as the standard.
Fifty μg of non-oligosaccharide chain added exendin-4 was added to a 96-well ELISA plate, and incubated at 37° C. for 2 hours. […] The color development reaction was terminated by adding 20% SDS, and absorption at 405 nm was measured. The concentration of anti-exendin-4 antibody was determined using anti-exendin-4 monoclonal antibody as the standard.

Setting [5] is: listed as Oligosaccharide chain added liraglutide.
Where [6] appears, read: listed as Position 30 Cys-disialooligosaccharide chain added liraglutide.
[7] abbreviates: stated with the db/db mice test.
The mark [8] stands for this setting: listed as Oligosaccharide chain added exendin-4.

albumin, sequence (P02768 25-609): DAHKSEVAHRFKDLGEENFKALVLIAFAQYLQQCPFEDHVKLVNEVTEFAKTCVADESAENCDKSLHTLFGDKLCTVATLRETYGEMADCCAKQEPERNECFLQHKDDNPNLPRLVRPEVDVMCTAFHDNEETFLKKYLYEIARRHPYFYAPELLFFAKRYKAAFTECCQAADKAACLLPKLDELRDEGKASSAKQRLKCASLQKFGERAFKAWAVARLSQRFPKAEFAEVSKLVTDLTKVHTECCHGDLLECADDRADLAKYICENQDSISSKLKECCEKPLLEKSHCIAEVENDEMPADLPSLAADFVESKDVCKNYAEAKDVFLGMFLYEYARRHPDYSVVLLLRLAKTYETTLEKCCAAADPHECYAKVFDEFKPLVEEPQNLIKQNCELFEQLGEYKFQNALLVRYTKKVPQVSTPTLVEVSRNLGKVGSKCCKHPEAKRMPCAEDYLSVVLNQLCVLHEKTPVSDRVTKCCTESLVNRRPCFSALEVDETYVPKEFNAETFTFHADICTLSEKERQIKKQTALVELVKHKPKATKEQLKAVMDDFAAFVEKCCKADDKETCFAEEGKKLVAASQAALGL

Turning to “Position 30 Cys-DisialoOligosaccharide Chain Added Liraglutide”, the “blood glucose lowering action in db/db mice” value (from here on “blood glucose lowering action”) in data set [1] (setting [5]) was “blood glucose lowering action and sustainability equal to non-oligosaccharide chain added liraglutide”; in data set [1] (setting [6]), “strong blood glucose lowering action 30 minutes after administration; also recorded: blood glucose lowering action and sustainability equal to non-oligosaccharide, chain added liraglutide”. In addition, the “duration of blood glucose lowering effect in db/db mice” value in data set [1] (i.p., 10 mL/kg, last sampling 720 minutes) is 12 h. Also, the blood stability result in data set [1] (setting [7]) is given as “high blood stability”. Also, the “blood glucose elevation suppressive action (OGTT)” value in the data set on C57BL/6JJcl mice [2] was “even higher blood glucose elevation suppressive action compared to non-oligosaccharide chain added liraglutide”; with C57BL/6JJcl mice [2] (setting [5]), “blood glucose elevation suppressive action even higher than non-oligosaccharide chain added liraglutide”; with C57BL/6JJcl mice [2] (setting [6]) it was “blood glucose elevation suppressive action higher than vehicle (PBS only) and GLP-1”.

Turning to Exendin-4, in the data set on C57BL/6JJcl mice [3], the “blood glucose elevation suppressive action (OGTT)” value is “blood glucose elevation suppressive action higher than vehicle (PBS only) and GLP-1”. Further, the “blood glucose lowering action” value in data set [4] is on record as “strong blood glucose lowering action 30 minutes after administration”. Also, in data set [4] (i.p., 10 mL/kg, last sampling 240 minutes), the “duration of blood glucose lowering effect in db/db mice” value was determined as 240 min. The blood stability entry in data set [4] (setting [7]) was “high blood stability”.

On to `CCCCCCCCCCCCCCCC(=O)N[C@@H](CCC(=O)NCCCC[C@H](NC(=O)[C@H](C)NC(=O)[C@H](C)NC(=O)[C@H](CCC(N)=O)NC(=O)CNC(=O)[C@H](CCC(=O)O)NC(=O)[C@H](CC(C)C)NC(=O)[C@H](Cc1ccc(O)cc1)NC(=O)[C@H](CO)NC(=O)[C@H](CO)NC(=O)[C@@H](NC(=O)[C@H](CC(=O)O)NC(=O)[C@H](CO)NC(=O)[C@@H](NC(=O)[C@H](Cc1ccccc1)NC(=O)[C@@H](NC(=O)CNC(=O)[C@H](CCC(=O)O)NC(=O)[C@H](C)NC(=O)[C@@H](N)Cc1cnc[nH]1)[C@@H](C)O)[C@@H](C)O)C(C)C)C(=O)N[C@@H](CCC(=O)O)C(=O)N[C@@H](Cc1ccccc1)C(=O)N[C@H](C(=O)N[C@@H](C)C(=O)N[C@@H](Cc1c[nH]c2ccccc12)C(=O)N[C@@H](CC(C)C)C(=O)N[C@H](C(=O)N[C@@H](CCCNC(=N)N)C(=O)NCC(=O)N[C@@H](CCCNC(=N)N)C(=O)NCC(=O)O)C(C)C)[C@@H](C)CC)C(=O)O` [Liraglutide], for which, on albumin, the “administered amount that binds to albumin” value is recorded as “about 99%”.

For “Position 30 Cys-DisialoOligosaccharide Chain Added Exendin-4”, in the data set on balb/c mice, the “plasma anti-exendin-4 antibody concentration / antibody titer compared to non-oligosaccharide chain added exendin-4” value is “about one-quarter”. For the same compound, the “blood glucose elevation suppressive action (OGTT)” value with C57BL/6JJcl mice [3] (setting [8]) is on record as “blood glucose elevation suppressive action equal to non-oligosaccharide chain added exendin-4”. Besides, the “blood glucose lowering action” value in data set [4] (setting [8]) was “string blood glucose lowering action equal to non-oligosaccharide chain added exendin-4”; in data set [4] (listed as Position 30 Cys-disialooligosaccharide chain added exendin-4), “blood glucose lowering action and sustainability equal to non-oligosaccharide chain added exendin-4”.

Values taken from patent publication US20120264684A1, “Glycosylated Form of Antigenic GLP-1 Analogue” (priority 2009, published 2012).
